By GI50 is commonly meant the concentration at which growth is held to half of that of the control.

Holding throughout (format): functional
For experiment [1], the system named is MDA-MB-231. Briefly: Anticancer activity against human MDA-MB-231 cells assessed as cell growth inhibition measured after 72 hrs by DAPI staining based analysis.
Experiment [2] has as its system HOP-62. The experiment is described as follows: Anticancer activity against human HOP-62 cells assessed as cell doubling measured for 72 hrs by DAPI staining based analysis.
Experiment [3] has as its system MDA-MB-435. The experiment is described as follows: Anticancer activity against human MDA-MB-435 cells assessed as cell doubling measured for 72 hrs by DAPI staining based analysis.
For experiment [4], the system named is SW1417. The experiment is described as follows: Anticancer activity against human SW1417 cells assessed as cell growth inhibition measured after 72 hrs by DAPI staining based analysis.

Turning to `CC(C)Oc1ccc(C(=O)N[C@H](CNC(=O)CN(C)C)Cc2ccc(-c3cn4cccc([C@H](C)O)c4n3)cc2)cc1Cl` [GSK-923295A], the figures for the GI50 in experiment [1] and in experiment [4] were 5020 nM and 29 nM, respectively. Further, the Activity is recorded as 1.82 in experiment [2] and 2.96 in experiment [3].

(Values after ChEMBL document CHEMBL5705890, “Antitumor activity of an allosteric inhibitor of centromere-associated protein-E” (Proc Natl Acad Sci U S A, 2010).)
